{
  "source": "the NIST ThermoML archive (doi:10.1021/je020228x)",
  "key": {"[1]": {"conditions": "Crystal"}, "[2]": {"test": "molar enthalpy of transition or fusion", "conditions": "Crystal, DSC"}, "[3]": {"test": "molar heat capacity at constant pressure", "conditions": "445.51 K; 101.33 kPa; Crystal; Small sample (50 mg) DSC"}},
  "note": "Numbers after ± are expanded uncertainties.",
  "data": [
    {"smiles": "CC(C)(C)O", "note": "[2-methylpropan-2-ol]", "values": [
      {"measurement": "Normal melting temperature", "setting": "[1]; visual observation", "value": "24.84 ± 0.39", "unit": "°C"}
    ]},
    {"smiles": "Cc1nc2ccccc2[nH]1", "note": "[2-methylbenzimidazole]", "values": [
      {"measurement": "Normal melting temperature", "setting": "[1]; DTA", "value": 178.28, "unit": "°C"},
      {"measurement": "molar enthalpy of transition or fusion", "setting": "[2]; 383.93 K", "value": 0.14, "unit": "kcal/mol"},
      {"measurement": "molar enthalpy of transition or fusion", "setting": "[2]; 451.43 K", "value": 4.9, "unit": "kcal/mol"}
    ]},
    {"smiles": "c1ccc2[nH]cnc2c1", "note": "[benzimidazole]", "values": [
      {"measurement": "Normal melting temperature", "setting": "[1]; DTA", "value": 172.36, "unit": "°C"},
      {"measurement": "molar enthalpy of transition or fusion", "setting": "[2]; 384.43 K", "value": 0.17, "unit": "kcal/mol"},
      {"measurement": "molar enthalpy of transition or fusion", "setting": "[2]; 445.51 K", "value": 4.89, "unit": "kcal/mol"},
      {"measurement": "molar heat capacity at constant pressure", "setting": "[3]", "value": 49.09, "unit": "J/K/mol"}
    ]}
  ]
}
